Source: USRE48461E1, “Modulation of androgen receptor expression” (Ionis Pharmaceuticals, Inc., priority 2012, dated 2021)
e = 2'-O-(2-methoxyethyl) (MOE); d = 2'-deoxy (DNA)

Assays:
testosterone = assay: Serum testosterone levels in cynomolgus monkeys (ELISA); assay type: in vivo; conditions: cynomolgus monkey, 40 mg/kg subcutaneously
Experimental: Serum testosterone protein levels were measured in the plasma with an ELISA kit (Enzo Life Sciences), following the manufacturer's instructions.

[1] = cynomolgus monkey, in vivo, sc, 40 mg/kg
[2] = cynomolgus monkey, in vivo, sc, 40 mg/kg; remark: listed apart in the source
Experimental: (§5) Prior to the study, the monkeys were kept in quarantine for a 30-day period, during which the animals were observed daily for general health. The monkeys were 2-4 years old and weighed between 2 and 4 kg. Thirteen groups of four randomly assigned male cynomolgus monkeys each were injected subcutaneously with ISIS oligonucleotide or PBS. PBS solution or ISIS oligonucleotides, at a dose of 40 mg/kg, were administered with a loading regimen consisting of four doses on the first week of the study (days 1, 3, 5, and 7), followed by a maintenance regimen consisting of once weekly administration starting on Day 14 (weeks 2 to 6). Subcutaneous injections were performed in clock-wise rotations at 4 sites on the back; one site per dose. The injection sites were delineated by tattoo, while sedated using ketamine, and were separated by a minimum of 3 cm.
To evaluate the effect of ISIS oligonucleotides on hepatic function, the monkeys were fasted overnight. Approximately, 1.5 mL of blood samples were collected on day 44 from all the study groups. Blood was collected in tubes without anticoagulant for serum separation. The tubes were kept at room temperature for a minimum of 90 min and then centrifuged at 3,000 rpm for 10 min. Levels of various liver function markers were measured using a Toshiba 120FR NEO chemistry analyzer (Toshiba Co., Japan).

[3] = cynomolgus monkey, in vivo, sc, 40 mg/kg; remark: listed apart in the source
Experimental: as §5
To evaluate any effect of ISIS oligonucleotides in cynomolgus monkeys on hematologic parameters, blood samples of approximately 0.5 mL of blood was collected day 44 from each of the available study animals in tubes containing K2-EDTA. Samples were analyzed for red blood cell (RBC) count, white blood cells (WBC) count, platelet count, hemoglobin content and hematocrit, using an ADVIA2120i hematology analyzer (SIEMENS, USA).

[4] = cynomolgus monkey, in vivo, sc, 40 mg/kg; remark: listed apart in the source
[5] = cynomolgus monkey, in vivo, sc, 40 mg/kg; remark: listed apart in the source
Experimental: as §5
Kidney function was also assessed by urinalysis. Fresh urine from all animals was collected on day 44 using a clean cage pan on wet ice. Food was removed overnight the day before fresh urine collection was done but water was supplied. The total protein and creatinine levels were measured using a Toshiba 120FR NEO automated chemistry analyzer (Toshiba Co., Japan) and the protein to creatinine ratio was calculated.

[6] = cynomolgus monkey, in vivo, sc, 40 mg/kg; remark: listed apart in the source
Experimental: The monkeys were 2-4 years old and weighed between 2 and 4 kg. Thirteen groups of four randomly assigned male cynomolgus monkeys each were injected subcutaneously with ISIS oligonucleotide or PBS. PBS solution or ISIS oligonucleotides, at a dose of 40 mg/kg, were administered with a loading regimen consisting of four doses on the first week of the study (days 1, 3, 5, and 7), followed by a maintenance regimen consisting of once weekly administration starting on Day 14 (weeks 2 to 6). Subcutaneous injections were performed in clock-wise rotations at 4 sites on the back; one site per dose. The injection sites were delineated by tattoo, while sedated using ketamine, and were separated by a minimum of 3 cm.
To evaluate any inflammatory effect of ISIS oligonucleotides in cynomolgus monkeys, the monkeys were fasted overnight. Approximately, 1.5 mL of blood samples were collected from all the study groups on day 44. Blood was collected in tubes without anticoagulant for serum separation. The tubes were kept at room temperature for a minimum of 90 min and then centrifuged at 3,000 rpm for 10 min. C-reactive protein (CRP), which is synthesized in the liver and which serves as a marker of inflammation, was measured on day 43 using a Toshiba 120FR NEO chemistry analyzer (Toshiba Co., Japan). Complement C3 was also measured similarly, and the data is presented as a percentage of baseline values.

[7] = cynomolgus monkey, in vivo; for Oligonucleotide concentration, Kidney / Oligonucleotide concentration, Liver: sc, 40 mg/kg
Experimental: as §5
The concentrations of the full-length oligonucleotide in the kidney and the liver of select treatment groups were measured. The method used is a modification of previously published methods (Leeds et al., 1996; Geary et al., 1999) which consist of a phenol-chloroform (liquid-liquid) extraction followed by a solid phase extraction.

full-length AR = assay: Western blot of full-length AR in MDV3100-resistant C4-2B cells; assay type: cell-based, human; conditions: C4-2B MR cells (Example 16)
Experimental: (§1) ISIS 549372, ISIS 549434, and ISIS 554221 at 1 μM concentration of antisense oligonucleotide were each added to the culture media at 1 μM concentration for free uptake by the cells. After a treatment period of 2 days, cells were harvested in RIPA buffer containing protease inhibitors. The presence of bands for full-length AR, as well as the variant form, AR-V7, was detected by western blot using AR antibody (N-20, Santa Cruz).
(§2) Western analysis of full-length AR, as well as the AR-V7 variant, was also conducted in a manner similar to the assay described above.

AR-V7 = assay: Western blot of AR-V7 in MDV3100-resistant C4-2B cells; assay type: cell-based, human; conditions: C4-2B MR cells (Example 16)
Experimental: as §1, §2

AR full-length mRNA = AR full-length mRNA in CWR22-RV1 cells (RNAiMax, RTS3559); assay type: cell-based, human; conditions: 6 days
Experimental: (§3) CWR22-RV1 cells were plated and transfected using RNAiMax reagent (Life Technologies) with ISIS oligonucleotides at 1.7 nM, 5.0 nM, 16.7 nM, or 50 nM concentrations. ISIS 347526 was included as a negative control. After a treatment period of 6 days, the target reduction and proliferative capacity of the cancer cells was measured.
(§4) Antisense inhibition of AR full-length mRNA was measured with the RTS3559 primer probe set. The results are presented in Table 63 as percent inhibition relative to non-treated cells. The reduction in V7 splice variant of the AR mRNA was also measured by RT-PCR using SYBR Green staining (Hu, R. et al., Cancer Res. 2009. 69: 16-22). The results are presented in Table 64, as percent reduction, relative to non-treated cells. Cell proliferation was measured with CellTiter 96® AQueous One Solution Cell Proliferation kit (Promega), following the manufacturer's instructions. Results are presented in Table 65 as percent inhibition of proliferation, relative to non-treated cells.

[8] = system: V7 splice variant of the AR mRNA; assay: AR V7 splice variant mRNA in CWR22-RV1 cells (RT-PCR SYBR Green); assay type: cell-based, human; conditions: RNAiMax, 6 days
Experimental: as §3, §4

CWR22-RV1 cells = assay: CWR22-RV1 cell proliferation (CellTiter 96); assay type: cell-based, human; conditions: RNAiMax, 6 days
Experimental: as §3, §4

| Substance | Body Wt [1] [kg] | Heart weight [1] [g] | Kidney weight [1] [g] | Liver weight [1] [g] | Mesenteric lymph nodes weight [1] [g] | Spleen weight [1] [g] | ALT [2] [IU/L] | AST [2] [IU/L] | Albumin [2] [g/dL] | HCT [3] [%] | Hemoglobin [3] [g/dL] | Platelets [3] [µL] | RBC [3] [µL] | WBC [3] [µL] | Plasma BUN [4] [mg/dL] | Plasma Creatinine [4] [mg/dL] | Urine protein/creatinine ratio [5] | C3 (% of baseline) [6] | CRP [6] [mg/dL] | K/L ratio [7] | also measured |
| --- | --- | --- | --- | --- | --- | --- | --- | --- | --- | --- | --- | --- | --- | --- | --- | --- | --- | --- | --- | --- | --- |
| ISIS 584269: antisense compound targeted to human AR (CCTTATGGATGCTGCT; 3-10-3 (S)-cEt gapmer, further chemistry not given here) | 2.5 | 8.7 | 13 | 60 | 3.6 | 4.7 | 75 | 81 | 4.0 | 41 | 12.4 | 522000 | 5.2e+06 | 9800 | 21.8 | 0.89 | 0.00 | 102 % of baseline | 4.9 | 4.0 | Serum testosterone level (testosterone): 14.1 ng/mL; Oligonucleotide concentration, Kidney [7]: 2823 μg/g tissue; Oligonucleotide concentration, Liver [7]: 698 μg/g tissue |
| ISIS 584468: antisense compound targeted to human AR (CATTGTACTATGCCAG; 3-10-3 (S)-cEt gapmer, further chemistry not given here) | 2.5 | 8.3 | 13 | 60 | 3.8 | 4.1 | 46 | 52 | 4.0 | 45 | 13.5 | 408000 | 5.9e+06 | 11100 | 22.2 | 0.78 | 0.00 | 111 % of baseline | 1.3 | 5.2 | Serum testosterone level (testosterone): 13.6 ng/mL; Oligonucleotide concentration, Kidney [7]: 2441 μg/g tissue; Oligonucleotide concentration, Liver [7]: 474 μg/g tissue |
| TCTTATGTTTCCGAACCGTT (sugars from the 5' end e5 d10 e5, backbone and methylation of C not given here) [ISIS 347526, reference compound] | – | – | – | – | – | – | – | – | – | – | – | – | – | – | – | – | – | – | – | – | levels of full-length AR (Western analysis) (full-length AR): did not reduce protein levels; levels of AR-V7 (Western analysis) (AR-V7): did not reduce protein levels; Percent inhibition of AR full-length mRNA (AR full-length mRNA; dose 5.0 nM): 3%; Percent inhibition of AR full-length mRNA (AR full-length mRNA; dose 16.7 nM): 4%; Percent inhibition of AR full-length mRNA (AR full-length mRNA; dose 50.0 nM): 0%; Percent inhibition of AR splice variant, V7 ([8]; dose 5.0 nM): 0%; Percent inhibition of AR splice variant, V7 ([8]; dose 16.7 nM): 0%; Percent inhibition of AR splice variant, V7 ([8]; dose 50.0 nM): 10%; Percent inhibition of cell proliferation (CWR22-RV1 cells; dose 5.0 nM): 0%; Percent inhibition of cell proliferation (CWR22-RV1 cells; dose 16.7 nM): 0%; Percent inhibition of cell proliferation (CWR22-RV1 cells; dose 50.0 nM): 0% |
| TTGATTTAATGGTTGC [ISIS 579671] (cEt/MOE gapmer chemistry, further chemistry not given here) | 2.4 | 8.8 | 14 | 62 | 2.5 | 3.2 | 56 | 53 | 4.0 | 42 | 12.5 | 438000 | 5.4e+06 | 10000 | 22.7 | 0.74 | 0.00 | 101 % of baseline | 4.5 | 3.0 | Serum testosterone level (testosterone; 40 mg/kg): 7.3 ng/mL; Oligonucleotide concentration, Kidney [7]: 2576 μg/g tissue; Oligonucleotide concentration, Liver [7]: 871 μg/g tissue |
